According to publication PMC5563081, “Modulating Protein-Protein Interactions of the Mitotic Polo-like Kinases to Target Mutant KRAS” (Cell Chemical Biology, 2017):
Read-outs that look alike come from different tables or passages of the source.

How the values were obtained:
[1] = Stability in mouse hepatocytes; format: in vitro ADME
[2] = tested on: Panc 05.04; assay: Cell viability (SRB), Panc 05.04; format: cell-based; conditions: Homo sapiens, Panc 05.04, 72 h
Method: SW48 Parental, SW48 G12D, Panc-1, HPAF-II, Panc 02.03 and Panc 05.04 cell lines were seeded overnight at 5000 cells per well in a 96 well plate in recommended media (ATCC). Compounds were added the following day and viability was measured at 72h using the sulforhodamine B (SRB) colorimetric assay as follows. Cells were fixed by replacing media with 1% v/v Trichloroacetic Acid (TCA) (Sigma-Aldrich) at 4°C and incubated for 1h also at 4°C. Wells were washed thoroughly with copious amounts of deionised water before staining with Sulforhodamine B (SRB) (Sigma-Aldrich) solution (0.057% w/v in 1% v/v Acetic Acid (VWR)) for 30 min. Stain was aspirated and wells washed with several changes of 1% v/v Acetic Acid until unbound stain was removed, before air-drying. Bound stain was solubilized with 100μl / well 10mM Tris (pH 8.0) (Trizma Base (121.1) Sigma-Aldrich) with agitation for 10 min. Fluorescence intensity was recorded at Ex540nm / Em590nm using a BMG Pherastar Plus plate reader ([Vichai and Kirtikara, 2006]).
Pancreatic organoids were extracted and cultured as detailed above ([Boj et al., 2015]). In brief, pancreatic organoids were seeded at 600 cells per well in a 96 well plate and allowed to grow for 7 days with media replenishment on the 3rd day. Full-grown organoids were then treated with compounds for 72h and viability determined using CellTitre Glo 3D assay (Promega). For viability assays with c-MET siRNA, cells were reverse transfected in a 6 cm dish using Dharmafect 1 (GE Dharmacon) per manufacturer’s instructions. On the following day, cells were trypsinised and plated onto 96 well plates or 6 well plates. The 96 well plates were treated with a dose range of compounds or DMSO, and viability was determined via SRB colorimetric assay. […]
Cells were reverse-transfected with 50nM (SW48 parental, SW48 KRAS G12D and Panc-1) or 25nM (HeLa Flp-In T-REx parental cells) siRNA using Dharmafect (GE Dharmacon) as manufacturer’s recommendations. […] Viability was assessed after 72 hrs, with the SRB colorimetric assay. Knockdown efficiencies were determined by Western blot or RT-qPCR. […]

[3] = tested on: U2OS cells; assay: Quantification of mitotic phenotypes by immunofluorescence; format: cell-based, human; conditions: 12.5 μM
Method: Cells were plated on glass coverslips and incubated overnight. Cells were treated with compound diluted in medium for 24hrs. Medium was then removed and cells fixed in 20mM PIPES pH8, 20mM HEPES pH8, 5mM EGTA, 2mM MgCl, 0.2% Triton X-100 and 3.7% formaldehyde. Cells were washed in PBS containing 0.1% Tween-20 then incubated with anti-alpha tubulin antibody (Santa Cruz sc-32293) and anti-CREST antibody (Europa 90C-CS1058). Cells were washed then incubated with Alexa Fluor 568 labelled goat anti-mouse IgG (Invitrogen A11031) or Alexa Fluor 633 labelled goat anti-mouse IgG (Invitrogen A21052) and Alexa Fluor 488 goat anti-human IgG (Invitrogen A11013). Cells were washed and then mounted on glass slides in Vectashield mounting medium containing DAPI.

[4] = target: T1, PLK1 (Homo sapiens, UniProt P53350); assay: Cellular thermal shift assay (CeTSA / ITDRF-CeTSA) in HeLa cell lysates; format: binding
T1 construct: endogenous in cells; host or cells: HeLa cell lysate
T1 sequence (P53350 whole entry): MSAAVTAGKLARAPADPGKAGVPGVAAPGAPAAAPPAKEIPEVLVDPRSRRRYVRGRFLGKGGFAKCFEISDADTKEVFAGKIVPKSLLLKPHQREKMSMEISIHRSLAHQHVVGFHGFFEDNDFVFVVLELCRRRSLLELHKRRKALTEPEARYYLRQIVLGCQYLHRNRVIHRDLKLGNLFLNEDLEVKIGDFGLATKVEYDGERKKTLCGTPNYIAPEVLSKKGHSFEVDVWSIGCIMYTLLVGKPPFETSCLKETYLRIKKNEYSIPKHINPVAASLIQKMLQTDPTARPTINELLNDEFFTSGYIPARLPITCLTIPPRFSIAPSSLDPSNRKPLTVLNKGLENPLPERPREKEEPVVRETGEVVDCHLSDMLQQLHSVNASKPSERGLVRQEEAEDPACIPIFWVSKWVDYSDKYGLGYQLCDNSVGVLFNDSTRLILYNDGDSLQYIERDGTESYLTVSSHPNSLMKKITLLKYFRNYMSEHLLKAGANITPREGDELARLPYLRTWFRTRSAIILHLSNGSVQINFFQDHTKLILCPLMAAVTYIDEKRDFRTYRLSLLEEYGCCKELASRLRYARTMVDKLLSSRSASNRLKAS
Method: Two million HeLa cells were assessed for viability using Trypan blue and aliquoted into PCR tubes for lysate preparation and CeTSA. Aggregation temperature (Tagg) was determined for PLK1 PBD with a Biorad Tetrad gradient maker, using a final concentration of 1mM or 0.5mM for Poloppin or Poloppin-II, respectively, in 5% DMSO ([Jafari et al., 2014]). Samples were assessed using PLK1 antibodies (Invitrogen 33-1700) and GAPDH (Santa Cruz sc137179) and Li-Cor antibody (926-32252). Quantification was done with Odyssey Li-Cor technology.

Compound: CN(C)CCNC(=O)c1ccc(-c2ccc(-c3ccc(Cl)cc3)n2-c2ccccc2C(F)(F)F)cc1 [Poloppin-II]
- half-life [1]: 1.28 h
- hepatocyte CLint [1]: 18 µL/min/1e6 cells

Compound: O=C(O)CCc1ccc(-c2ccc(Br)cc2)n1-c1ccccc1C(F)(F)F [Poloppin]
- EC50 ([2]; read-out: EC50, % survival, Panc 05.04, All Stars control siRNA, 72 h): 23.8 ± 1.08 µM
- EC50 ([2]; read-out: EC50, % survival, Panc 05.04, siMET, 72 h): 11.6 ± 1.07 µM
- cells with normal metaphase chromosome alignment [3]: < 5%
- concentration at which cellular PLK1 is stabilized (ITDRF-CeTSA) ([4]; cell lysates at a constant 67°C): > 40 µM
- thermal stability of PLK1 protein (CeTSA) ([4]; fixed dose of 1 mM, HeLa cell lysates, compared with control): increased thermal stability
